Data as given in patent publication US6768007B2, “Substituted 3′,4′-di-O-camphanoyl-(+)-cis-khellactone analogs, compositions thereof, and methods for using thereof” (Panacos Pharmaceuticals, Inc., priority 2001, dated 2004).
Like-named read-outs stand apart in the source and are kept apart here.

How the values were obtained:
HIV-1 (IIIB isolate) = assay: Anti-HIV activity in H9 lymphocytes (p24 antigen ELISA); type: cell-based; conditions: H-9 lymphocytes; for Anti-HIV Activity EC50: HIV-1 IIIB, p24 ELISA, day 5, average of at least two experiments; for Therapeutic Index (TI = IC50/EC50): ratio of IC50 to EC50; for anti-viral activity (in words): summary of Table 1
Description: (§1) The biological evaluation of HIV-1 inhibition was carried out according to established protocols, (Kashiwada, Y., et al., J. Med. Chem. 39:1016-1017 (1996); Hashimoto, F., et al., Bioorg. & Med. Chem. 5:2133-2143 (1997)). The T cell line, H9, was maintained in continuous culture log-phase growth in complete medium (RPMI 1640 with 10% fetal calf serum supplemented with L-glutamine at 5% CO2 and 37° C.). Test samples were first dissolved in dimethyl sulfoxide at a concentration of 10 mg/ml to generate master stocks with dilutions made into tissue culture media to generate working stocks. The following drug concentrations were used routinely for screening: 50, 5, and 0.5 μg/mL. For agents found to be active, additional dilutions were prepared for subsequent testing so that an accurate EC50 value (defined below) could be determined. As the test samples were being prepared, an aliquot of the H9 cell line was infected with HIV-1 (IIIB isolate) while a second aliquot was mock-infected with complete medium. […] An amount of virus equal to approximately 6.25×10^4 TCID50 was added to the first aliquot of 3.5×10^6H9 cells. The second aliquot received tissue culture medium only, and these mock-infected cells were used for toxicity determinations (IC50 defined below). After a 4 h incubation at 37° C. and 5% CO2, both cell populations were washed three times with fresh medium and then added to the appropriate wells of a 96-well plate containing various concentrations of the test drug or tissue culture medium (positive infected control/negative drug control). In addition, AZT was assayed during each experiment as a positive drug control. The plates were incubated at 37° C. and 5% CO2 for 5 days. Cell-free culture supernatants were collected on Day 5 for use in a p24 antigen-capture ELISA assay to determine virus replication. p24 is the core protein of HIV and therefore is an indirect measure of the amount of virus present in the culture supernatants. Toxicity was determined using a viable dye method (XTT) on mock-infected H9 cells that were treated with test sample, AZT or no drug. If a test sample suppressed viral replication and was toxic to less than 50% of the cells, its effects were reported in the following terms: IC50, the concentration of test sample which was toxic to 50% of the mock-infected H9 cells; EC50, the concentration of the test sample which was able to suppress HIV replication by 50%; and Therapeutic Index (TI), the ratio of IC50 to EC50.
(§2) Compounds of the present invention were assayed for anti-HIV activity according to the following assay procedures. The T cell line, H9, and the promonocytic cell line, U937, were maintained separately in continuous culture with complete medium (RPMI 1640 with 10% fetal calf serum) at 5% CO2 and 37° C. The cell lines were used in experiments only when in the logarithmic phase of growth, whereas uninfected peripheral blood mononuclear cells (PBMCs) were first stimulated with PHA (1 μg/mL) for three days. All cell targets were incubated with HIV-1 (IIIB isolate, 1×10^6 TCID50/mL) for one hour at 37° C. and 5% CO2. The cell lines and PBMCs were washed thoroughly to remove unadsorbed virions and resuspended at 4×10^5 cells/mL in complete medium or complete medium with 10% v/v interleukin 2 (IL-2), respectively. […] aliquots were placed into wells of 96-well tissue culture plates containing an equal volume of test compounds (diluted in the appropriate culture medium). The toxicity of each compound was assessed by determining the viability of compound-exposed uninfected cells after five days at 37° C. and 5% CO2. A p24 antigen ELISA assay was used to determine the level of virus released in the medium of the HIV-infected cultures. The p24 antigen assay used a HIV-1 anti-p24 specific monoclonal antibody as the capture antibody coated onto 96-well plates. […]

mock-infected H9 cells = assay: Cytotoxicity in mock-infected (uninfected) H9 cells; type: cell-based
Description: as §1, §2

| Structure (SMILES) | Anti-HIV Activity EC50 (HIV-1 (IIIB isolate)) [µg/mL] | Therapeutic Index (TI = IC50/EC50) (HIV-1 (IIIB isolate)) | Cytotoxicity IC50 (mock-infected H9 cells) [µg/mL] | anti-viral activity (in words) (HIV-1 (IIIB isolate)) | Cytotoxicity IC50 (mock-infected H9 cells; uninfected H9 cells, five days, average of at least two experiments) [µg/mL] |
| --- | --- | --- | --- | --- | --- |
| Cc1cc(=O)oc2c3c(c(C(Br)Br)cc12)OC(C)(C)[C@H](OC(=O)[C@@]12CCC(C)(C(=O)O1)C2(C)C)[C@@H]3OC(=O)[C@@]12CCC(C)(C(=O)O1)C2(C)C (relative stereo) [Compound 5, (3′R,4′R)-3′,4′-Di-O-(S)-(−)-camphanoyl-6-dibromomethyl-4-methyl-(+)-cis-khellactone] | 0.0215 | 81.8 | 1.76 | – | – |
| Cc1cc(=O)oc2c3c(c(CBr)cc12)OC(C)(C)[C@H](OC(=O)[C@@]12CC[C@@](C)(C(=O)O1)C2(C)C)[C@@H]3OC(=O)[C@@]12CC[C@@](C)(C(=O)O1)C2(C)C (relative stereo) [Compound 6, (3′R,4′R)-3′,4′-Di-O-(S)-(−)-camphanoyl-6-bromomethyl-4-methyl-(+)-cis-khellactone] | 0.025 | 1,000 | 25.00 | – | – |
| CC(=O)OCc1cc2ccc3c(c2oc1=O)[C@@H](OC(=O)[C@@]12CCC(C)(C(=O)O1)C2(C)C)[C@@H](OC(=O)[C@@]12CCC(C)(C(=O)O1)C2(C)C)C(C)(C)O3 (relative stereo) [Compound 7, (3′R,4′R)-3′,4′-Di-O-(S)-(−)-camphanoyl-3-acetoxymethyl-(+)-cis-khellactone] | 0.00103 | 3,243 | 3.34 | most potent | – |
| CC(=O)OCc1c(C)c2ccc3c(c2oc1=O)[C@@H](OC(=O)[C@@]12CC[C@@](C)(C(=O)O1)C2(C)C)[C@@H](OC(=O)[C@@]12CC[C@@](C)(C(=O)O1)C2(C)C)C(C)(C)O3 (relative stereo) [Compound 8, (3′R,4′R)-3′,4′-Di-O-(S)-(−)-camphanoyl-3-acetoxymethyl-4-methyl-(+)-cis-khellactone] | 0.00012 | 157,000 | 18.80 | most potent | – |
| CC(=O)OCc1cc2c(C)cc(=O)oc2c2c1OC(C)(C)[C@H](OC(=O)[C@@]13CCC(C)(C(=O)O1)C3(C)C)[C@@H]2OC(=O)[C@@]12CCC(C)(C(=O)O1)C2(C)C (relative stereo) [Compound 9, (3′R,4′R)-3′,4′-Di-O-(S)-(−)-camphanoyl-6-acetoxymethyl-4-methyl-(+)-cis-khellactone] | 0.275 | 78.9 | 21.70 | – | – |
| Cc1cc(=O)oc2c3c(c(CO)cc12)OC(C)(C)[C@H](OC(=O)[C@@]12CCC(C)(C(=O)O1)C2(C)C)[C@@H]3OC(=O)[C@@]12CCC(C)(C(=O)O1)C2(C)C (relative stereo) [Compound 12, (3′R,4′R)-3′,4′-Di-O-(S)-(−)-camphanoyl-6-hydroxymethyl-4-methyl-(+)-cis-khellactone] | 0.000625 | 30,900 | 19.3 | most potent | – |
| COP(=O)(OC)OCc1cc2c(C)cc(=O)oc2c2c1OC(C)(C)[C@H](OC(=O)[C@@]13CCC(C)(C(=O)O1)C3(C)C)[C@@H]2OC(=O)[C@@]12CCC(C)(C(=O)O1)C2(C)C (relative stereo) [Compound 13, (3′R,4′R)-3′,4′-Di-O-(S)-(−)-camphanoyl-6-(dimethylphosphate)methyl-4-methyl-(+)-cis-khellactone] | 0.504 | 3.79 | – | – | 1.91 |
| Cc1cc(=O)oc2c3c(c(CN)cc12)OC(C)(C)[C@H](OC(=O)[C@@]12CC[C@@](C)(C(=O)O1)C2(C)C)[C@@H]3OC(=O)[C@@]12CC[C@@](C)(C(=O)O1)C2(C)C (relative stereo) [Compound 15, (3′R,4′R)-3′,4′-di-O-(S)-(−)-camphanoyl-6-aminomethyl-4-methyl-(+)-cis-khellactone] | 0.001 | 24,100 | 24.1 | most potent | – |

More lines, main results first:

| Anti-HIV Activity EC50 (HIV-1 (IIIB isolate)) [µg/mL] | Structure (SMILES) | Therapeutic Index (TI = IC50/EC50) (HIV-1 (IIIB isolate)) | Cytotoxicity IC50 (mock-infected H9 cells) [µg/mL] | anti-viral activity (in words) (HIV-1 (IIIB isolate)) | Cytotoxicity IC50 (mock-infected H9 cells; uninfected H9 cells, five days, average of at least two experiments) [µg/mL] |
| --- | --- | --- | --- | --- | --- |
| 0.0854 | CC1(C)Oc2ccc3cc(CBr)c(=O)oc3c2[C@@H](OC(=O)[C@@]23CC[C@@](C)(C(=O)O2)C3(C)C)[C@H]1OC(=O)[C@@]12CC[C@@](C)(C(=O)O1)C2(C)C (relative stereo) [Compound 1, (3′R,4′R)-3′,4′-Di-O-(S)-(−)-camphanoyl-3-bromomethyl-(+)-cis-khellactone] | 40 | 3.38 | – | – |
| 0.000119 | CC1(C)Oc2ccc3cc(C(Br)Br)c(=O)oc3c2[C@@H](OC(=O)[C@@]23CCC(C)(C(=O)O2)C3(C)C)[C@H]1OC(=O)[C@@]12CCC(C)(C(=O)O1)C2(C)C (relative stereo) [Compound 2, (3′R,4′R)-3′,4′-Di-O-(S)-(−)-camphanoyl-3-dibromomethyl-(+)-cis-khellactone] | 26,890 | 3.20 | most potent | – |
| 0.000192 | Cc1c(CBr)c(=O)oc2c3c(ccc12)OC(C)(C)[C@H](OC(=O)[C@@]12CC[C@@](C)(C(=O)O1)C2(C)C)[C@@H]3OC(=O)[C@@]12CC[C@@](C)(C(=O)O1)C2(C)C (relative stereo) [Compound 3, (3′R,4′R)-3′,4′-Di-O-(S)-(−)-camphanoyl-3-bromomethyl-4-methyl-(+)-cis-khellactone] | 101,000 | 19.4 | most potent | – |
| 0.0176 | CC1(C)Oc2c(CBr)cc3ccc(=O)oc3c2[C@@H](OC(=O)[C@@]23CCC(C)(C(=O)O2)C3(C)C)[C@H]1OC(=O)[C@@]12CCC(C)(C(=O)O1)C2(C)C (relative stereo) [Compound 4, (3′R,4′R)-3′,4′-Di-O-(S)-(−)-camphanoyl-6-bromomethyl-(+)-cis-khellactone] | 113 | 1.99 | – | – |
| 0.000188 | CC1(C)Oc2ccc3cc(CO)c(=O)oc3c2[C@@H](OC(=O)[C@@]23CCC(C)(C(=O)O2)C3(C)C)[C@H]1OC(=O)[C@@]12CCC(C)(C(=O)O1)C2(C)C (relative stereo) [Compound 10, (3′R,4′R)-3′,4′-Di-O-(S)-(−)-camphanoyl-3-hydroxymethyl-(+)-cis-khellactone] | 188,032 | 35.35 | most potent | – |
| 0.39 | CC1(C)Oc2ccc3cc(CN)c(=O)oc3c2[C@@H](OC(=O)[C@@]23CC[C@@](C)(C(=O)O2)C3(C)C)[C@H]1OC(=O)[C@@]12CC[C@@](C)(C(=O)O1)C2(C)C (relative stereo) [Compound 14, (3′R,4′R)-3′,4′-Di-O-(S)-(−)-camphanoyl-3-aminomethyl-(+)-cis-khellactone] | – | 32.81 | – | – |
| 0.69 | CCN(CC)Cc1cc2ccc3c(c2oc1=O)[C@@H](OC(=O)[C@@]12CC[C@@](C)(C(=O)O1)C2(C)C)[C@@H](OC(=O)[C@@]12CC[C@@](C)(C(=O)O1)C2(C)C)C(C)(C)O3 (relative stereo) [Compound 16, (3′R,4′R)-3′,4′-Di-O-(S)-(−)-camphanoyl-3-diethylaminomethyl-(+)-cis-khellactone] | 62 | 43.01 | – | – |
